This note sets out measurements from the supplement of paper PMC8967900.

Assay in all cases: selective drug sensitivity score (sDSS, relative to normal bone marrow) (sDSS (score)); higher = more potent and effective on the cell line relative to normal bone marrow cells
Conditions in all cases: 72 h

Experiment [1] has as its system TMD5.
Experiment [2] has as its system CCRF-CEM.
Experiment [3] concerns COG-LL-332h.
The test system of experiment [4] is ALL-SIL.
Experiment [5] relates to KASUMI-9.
In experiment [6] the test system is P30-OHKUBO.
Experiment [7] relates to COG-LL-402h.
The test system of experiment [8] is NALM-6.
The subject of experiment [9] is CCRF-HSB2.
Experiment [10] relates to P12-ICHIKAWA
Experiment [11] deals with JURKAT.
The subject of experiment [12] is TANOUE.
Experiment [13] has as its system COG-LL-355h.
The subject of experiment [14] is RPMI-8402.
For experiment [15], the system named is PEER.
The test system of experiment [16] is COG-LL-394h.
The test system of experiment [17] is COG-LL-317.
Experiment [18] concerns LC4-1.
For experiment [19], the system named is KARPAS-45.
Experiment [20] has as its system PF-382.
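Note: ALL cell lines in 384-well plates, five doses spanning 10,000-fold, each plate scaled between vehicle and 100 µmol/L benzalkonium chloride controls, sDSS an adapted area-under-curve metric.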

As for `CC[C@@H]1C(=O)OC[C@@H]1Cc1cncn1C` [Pilocarpine] (top concentration 40000 nM), the “selective drug sensitivity score” value in experiment [1] is -1.56; in experiment [2], -1.56; in experiment [3], -1.56; in [4], -0.76; in experiment [5], -1.56; in experiment [6], -1.56. Further, the “selective drug sensitivity score” value was -1.56 in experiment [7]; -1.56 in experiment [8]; -1.56 in [9]; -1.56 in [10]; -1.56 in [11]; -0.36 in experiment [12]. The “selective drug sensitivity score” value in [13], in [14], in [15], in experiment [16], in [17] and in [18] was -1.56 each time. For the same compound, the “selective drug sensitivity score” value in experiment [19] and in experiment [20] was -1.56 each time.
As for `Nc1cccc2c1C(=O)N(C1CCC(=O)NC1=O)C2=O` (stereo not given) [Pomalidomide] (top concentration 10000 nM), the “selective drug sensitivity score” value is -0.26 in experiment [1]; -0.26 in [2]; -0.26 in experiment [3]; -0.26 in experiment [4]; 6.84 in experiment [5]; 0.54 in [6]. Further, the “selective drug sensitivity score” value in experiment [7] is 0.64; in experiment [8] it was -0.26; in [9], -0.26; in experiment [10], -0.26; in experiment [11] it was -0.26; in experiment [12] it was -0.26. Moreover, the “selective drug sensitivity score” value in experiment [13] was 5.24; in [14] it was -0.26; in [15] it was -0.26; in experiment [16], 0.04; in [17] it was -0.26; in experiment [18], 4.54. The “selective drug sensitivity score” value in experiment [19] and in experiment [20] was -0.26 each time.
For the compound `Cc1nc(=O)c2cc(CN(C)c3ccc(C(=O)N[C@@H](CCC(=O)O)C(=O)O)s3)ccc2[nH]1` [Raltitrexed] (top concentration 1000 nM), the “selective drug sensitivity score” value in [1] is -0.68; in [2] it was 23.3; in experiment [3] it was 18.3; in experiment [4], 17.3; in experiment [5], 15.2; in [6], 25.3. In addition, the “selective drug sensitivity score” value in experiment [7] was 8.22; in experiment [8], 23; in [9], 21.9; in [10] it was 20.4; in experiment [11], 14.6; in experiment [12], -0.58. The “selective drug sensitivity score” value in experiment [13] amounted to 4.82; in [14], 23.4; in experiment [15], 13; in [16], 2.12; in experiment [17] it was 19.5; in [18], 19.3. The “selective drug sensitivity score” value came to 9.52 in experiment [19] and 13.1 in [20].
On to `C=CC(=O)Nc1cccc(Nc2nc(Nc3ccc(N4CCN(C(C)=O)CC4)cc3OC)ncc2C(F)(F)F)c1` [Rociletinib] (top concentration 10000 nM), for which the “selective drug sensitivity score” value in experiment [1] was -2.06; in experiment [2], 2.44; in [3] it was 1.84; in [4] it was 3.64; in experiment [5] it was 5.14; in [6] it was 4.24. Besides, the “selective drug sensitivity score” value is 5.24 in experiment [7]; 4.94 in [8]; 1.24 in experiment [9]; 1.94 in [10]; 2.64 in experiment [11]; -3.16 in experiment [12]. Besides, the “selective drug sensitivity score” value stood at 5.84 in experiment [13]; 2.24 in experiment [14]; 4.24 in [15]; 5.24 in experiment [16]; 1.44 in [17]; 3.94 in experiment [18]. Besides, the “selective drug sensitivity score” value was 3.14 in experiment [19] and 0.64 in experiment [20].
`CC(C)N(CCCNC(=O)Nc1ccc(C(C)(C)C)cc1)C[C@H]1O[C@@H](n2cc(Br)c3c(N)ncnc32)[C@H](O)[C@@H]1O` [SGC0946] (top concentration 10000 nM): the “selective drug sensitivity score” value in experiment [1] is 3.98; in experiment [2], 0.88; in experiment [3], 0.18; in experiment [4], -0.92; in [5], 0.28; in experiment [6], 2.58. Besides, the “selective drug sensitivity score” value in experiment [7] is -0.62; in experiment [8] it was -0.82; in experiment [9] it was 0.68; in [10], 0.08; in experiment [11], -0.42; in experiment [12], -1.12. Also, the “selective drug sensitivity score” value is 1.88 in experiment [13]; 1.78 in experiment [14]; 0.88 in experiment [15]; -0.82 in [16]; -1.12 in experiment [17]; -1.02 in [18]. Moreover, the figures for the “selective drug sensitivity score” value in experiment [19] and in experiment [20] were 3.98 and 0.28, respectively.
